Assay results from the OligoGym collection.
HELM strings list units from the 5' end as sugar, base in round brackets, then linkage (d deoxyribose, r ribose, m 2'-O-methyl, p phosphodiester). Strings are as the collection lists them; they lack the last nucleoside at the 3' end of the tested compound. [moe] = 2'-O-(2-methoxyethyl) (MOE); [sp] = phosphorothioate linkage; [m5C] = 5-methylcytosine

Molecular target: HTT
Experiment: mouse, dose not given
Details: ASO

Substance | 3 h FOB score
RNA1{[moe](T)[sp].[moe](G)p.[moe]([m5C])p.[moe](T)p.[moe](G)[sp].d([m5C])[sp].d(T)[sp].d([m5C])[sp].d(A)[sp].d([m5C])[sp].d(T)[sp].d([m5C])[sp].d(A)[sp].d(T)[sp].d(T)[sp].[moe](T)p.[moe]([m5C])p.[moe]([m5C])[sp].[moe](A)}$$$$ (last 3' nucleoside missing) | 0 score 0-7
RNA1{[moe](T)[sp].[moe](T)p.[moe](G)p.[moe](G)p.[moe](T)p.[moe](T)p.d(A)[sp].d(G)[sp].d(T)[sp].d(T)[sp].d(T)[sp].d(T)[sp].d([m5C])[sp].d([m5C])[sp].d(T)[sp].d(T)[sp].[moe](T)p.[moe](T)[sp].[moe](A)}$$$$ (last 3' nucleoside missing) | 0 score 0-7
RNA1{[moe](T)[sp].[moe]([m5C])p.[moe](A)p.[moe]([m5C])p.[moe](A)[sp].d(G)[sp].d([m5C])[sp].d(T)[sp].d(T)[sp].d(T)[sp].d(T)[sp].d(A)[sp].d(T)[sp].[moe](T)p.[moe](T)p.[moe]([m5C])[sp].[moe]([m5C])}$$$$ (last 3' nucleoside missing) | 0 score 0-7
RNA1{[moe](T)[sp].[moe]([m5C])p.[moe]([m5C])p.[moe](T)p.[moe]([m5C])[sp].d(T)[sp].d(T)[sp].d(T)[sp].d([m5C])[sp].d(A)[sp].d([m5C])[sp].d(T)[sp].d(G)[sp].d([m5C])[sp].d(T)[sp].[moe](T)p.[moe]([m5C])p.[moe](T)[sp].[moe](A)}$$$$ (last 3' nucleoside missing) | 3 score 0-7
RNA1{[moe]([m5C])[sp].[moe](A)p.[moe]([m5C])p.[moe](A)p.[moe](G)[sp].d([m5C])[sp].d(T)[sp].d(T)[sp].d(T)[sp].d(T)[sp].d(A)[sp].d(T)[sp].d(T)[sp].d(T)[sp].d([m5C])[sp].[moe]([m5C])p.[moe](A)p.[moe](T)[sp].[moe](A)}$$$$ (last 3' nucleoside missing) | 0 score 0-7
RNA1{[moe]([m5C])[sp].[moe](A)p.[moe]([m5C])p.[moe](A)p.[moe](G)p.[moe]([m5C])p.d(T)[sp].d(T)[sp].d(T)[sp].d(T)[sp].d(A)[sp].d(T)[sp].d(T)[sp].d(T)[sp].d([m5C])[sp].d([m5C])[sp].[moe](A)p.[moe](T)[sp].[moe](A)}$$$$ (last 3' nucleoside missing) | 0 score 0-7
RNA1{[moe]([m5C])[sp].[moe](A)p.[moe]([m5C])p.[moe](T)p.[moe]([m5C])[sp].d(A)[sp].d(T)[sp].d(T)[sp].d(T)[sp].d([m5C])[sp].d([m5C])[sp].d(A)[sp].d([m5C])[sp].d([m5C])[sp].d(T)[sp].[moe](T)p.[moe]([m5C])p.[moe](A)[sp].[moe](G)}$$$$ (last 3' nucleoside missing) | 0 score 0-7
RNA1{[moe]([m5C])[sp].[moe](T)p.[moe](A)p.[moe](G)p.[moe](A)[sp].d(G)[sp].d(G)[sp].d(T)[sp].d([m5C])[sp].d(A)[sp].d(T)[sp].d([m5C])[sp].d(T)[sp].d(T)[sp].d([m5C])[sp].[moe](G)p.[moe](G)p.[moe](T)[sp].[moe]([m5C])}$$$$ (last 3' nucleoside missing) | 2 score 0-7
RNA1{[moe]([m5C])[sp].[moe](T)p.[moe](T)p.[moe](G)p.[moe](G)p.[moe](T)p.d(T)[sp].d(A)[sp].d(G)[sp].d(T)[sp].d(T)[sp].d(T)[sp].d(T)[sp].d([m5C])[sp].d([m5C])[sp].d(T)[sp].[moe](T)p.[moe](T)[sp].[moe](T)}$$$$ (last 3' nucleoside missing) | 4.25 score 0-7
